Consider 15 compounds from ChEMBL document CHEMBL3351223, “Single Diastereomer of a Macrolactam Core Binds Specifically to Myeloid Cell Leukemia 1 (MCL1)” (ACS Med Chem Lett, 2014).

The ΔTm is the change in melting temperature against a reference sample. As a reminder, the IC50 is the midpoint of a concentration-inhibition curve. Read a high IC50 as a need for much substance.

Active and inactive are the calls of the source. The calls are words filed in the database; no cut-off is given here.

Assay [1] addresses T1, Induced myeloid leukemia cell differentiation protein Mcl-1 (Homo sapiens, UniProt Q07820). The following applies: 25 uM.
Assay [2] deals with T1, Induced myeloid leukemia cell differentiation protein Mcl-1. To be noted: 800 uM.
Assay [3] shares this target. The following applies: 100 uM.
The target is the same in assay [4].
Assay [5] has the same target. The source holds these as a separate data set.
For assay [6] the target is unchanged. The source holds these as a separate data set.
Description: Binding affinity to human MCL1 (173 to 329 aa) using TAMRA-labeled Noxa peptide preincubated for 30 mins by fluorescent polarization assay
Assay [7] shares this target. The source holds these as a separate data set.
Description: Binding affinity to human MCL1 (173 to 329 aa) at 250 uM by differential scanning calorimetry assay

T1 sequence (Q07820 whole entry): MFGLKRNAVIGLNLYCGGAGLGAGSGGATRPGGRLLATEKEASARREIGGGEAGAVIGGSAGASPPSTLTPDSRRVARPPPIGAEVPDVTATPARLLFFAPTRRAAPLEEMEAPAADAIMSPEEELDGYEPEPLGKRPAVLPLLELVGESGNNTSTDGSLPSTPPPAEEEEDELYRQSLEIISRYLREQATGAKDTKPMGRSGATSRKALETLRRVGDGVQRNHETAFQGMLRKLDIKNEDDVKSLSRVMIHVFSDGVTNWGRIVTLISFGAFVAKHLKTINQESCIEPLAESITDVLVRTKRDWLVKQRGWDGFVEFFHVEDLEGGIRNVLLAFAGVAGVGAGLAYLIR

Turning to `C[C@@H]1CN([C@@H](C)CO)C(=O)c2cccc(NS(=O)(=O)c3ccc(F)cc3)c2O[C@@H]1CN(C)C(=O)Nc1ccc(C(F)(F)F)cc1`, the ΔTm in assay [1] worked out at 0.6 °C; in assay [3], 1.9 °C. Moreover, in assay [2], the outcome was inactive.

Turning to `NS(=O)(=O)c1ccc(F)cc1`, the outcome in assay [4] and in assay [5] was inactive.

Compound `C[C@@H]1CN([C@@H](C)C(=O)O)C(=O)c2cccc(NS(=O)(=O)c3ccccc3F)c2O[C@@H]1CN(C)C(=O)Nc1ccc(C(F)(F)F)cc1` displayed an IC50 in assay [6] of 21.3 µM. In addition, the ΔTm in assay [7] came out at 1.9 °C.

Compound `C[C@@H]1CN([C@@H](C)C(=O)O)C(=O)c2cccc(NS(=O)(=O)c3ccc(F)cc3)c2O[C@@H]1CN(C)C(=O)Nc1ccc2ccccc2c1` had a half-maximal inhibitory concentration (IC50) in assay [6] of over 25 µM. Also, the ΔTm in assay [7] came out at 0.8 °C.

The compound `C[C@@H]1CN([C@@H](C)C(=O)O)C(=O)c2cccc(NS(=O)(=O)Cc3ccccc3)c2O[C@@H]1CN(C)C(=O)Nc1ccc(C(F)(F)F)cc1` came in with a half-inhibitory concentration (IC50) in assay [6] of over 50 µM. For the same compound, the ΔTm in assay [7] stood at 1.4 °C.

In the case of `C[C@@H]1CN([C@@H](C)C(=O)O)C(=O)c2cccc(NS(=O)(=O)c3ccc(F)cc3)c2O[C@@H]1CN(C)C(=O)Nc1ccccc1`, the IC50 in assay [6] is over 50 µM. Besides, in assay [7], the shift in melting temperature (ΔTm) came out at 0.2 °C.

As for `C[C@@H]1CN([C@@H](C)CO)C(=O)c2cccc(NS(=O)(=O)c3ccccc3)c2O[C@@H]1CN(C)C(=O)Nc1ccc(C(F)(F)F)cc1`, in assay [1], the ΔTm worked out at 0.3 °C.

Consider `COc1ccc(NC(=O)N(C)C[C@H]2Oc3c(NS(=O)(=O)c4ccc(F)cc4)cccc3C(=O)N([C@@H](C)C(=O)O)C[C@H]2C)cc1`, for which the half-maximal inhibitory concentration (IC50) in assay [6] is over 50 µM. Further, in assay [7], the ΔTm amounted to 0.2 °C.

As for `C[C@@H]1CN([C@@H](C)C(=O)O)C(=O)c2cccc(NS(=O)(=O)CCc3ccccc3)c2O[C@@H]1CN(C)C(=O)Nc1ccc(C(F)(F)F)cc1`, the IC50 in assay [6] is over 50 µM. In assay [7], the ΔTm was found to be 0.4 °C.

Take `C[C@@H]1CN([C@@H](C)C(=O)O)C(=O)c2cccc(NS(=O)(=O)c3ccccc3)c2O[C@@H]1CN(C)C(=O)Nc1ccc(C(F)(F)F)cc1`: the IC50 in assay [6] was determined as 10 µM. In addition, the ΔTm in assay [7] was found to be 2.8 °C.

Regarding `CN(C)C(=O)Nc1ccc(C(F)(F)F)cc1`, the result in assay [4] and in assay [5] was inactive.

As to `C[C@@H]1CN([C@@H](C)C(=O)O)C(=O)c2cccc(NS(=O)(=O)c3cccc(F)c3)c2O[C@@H]1CN(C)C(=O)Nc1ccc(C(F)(F)F)cc1`, in assay [6], the IC50 is 4.1 µM. Besides, the shift in melting temperature (ΔTm) in assay [7] is 3.4 °C.

As to `C[C@@H]1CN([C@@H](C)C(=O)O)C(=O)c2cccc(NS(=O)(=O)c3ccc(F)cc3)c2O[C@@H]1CN(C)C(=O)Nc1ccccc1C(F)(F)F`, in assay [6], the IC50 is over 50 µM. Moreover, the shift in melting temperature (ΔTm) in assay [7] was 0.2 °C.

`C[C@@H]1CN([C@@H](C)C(=O)O)C(=O)c2cccc(NS(=O)(=O)c3ccc(F)cc3)c2O[C@@H]1CN(C)C(=O)Nc1cccc(C(F)(F)F)c1` registered an IC50 in assay [6] of over 25 µM. In assay [7], the ΔTm was found to be 0.2 °C.

The compound `C[C@@H]1CN([C@@H](C)C(=O)O)C(=O)c2cccc(NS(=O)(=O)c3ccc(F)cc3)c2O[C@@H]1CN(C)C(=O)Nc1cccc2ccccc12` came in with a half-maximal inhibitory concentration (IC50) in assay [6] of over 50 µM. Moreover, the ΔTm in assay [7] was -0.1 °C.
